Patent publication US6673745B2, “Herbicidal 3,5-difluoropyridines” (BASF Aktiengesellschaft, priority 1997, dated 2004)

Experiments:
Type in all cases: in vivo
Glycine max (GLXMA) = experiment: pre-emergence herbicidal test
Experimental: (§1) To evaluate their herbicidal activity, compounds according to the invention are tested using a representative range of plants: […] The pre-emergence tests involve spraying a liquid formulation of the compound onto the soil in which the seeds of the plant species mentioned above has recently been sown. The soil used in the tests is a prepared horticultural loam. […] In these tests untreated sown soil are used as controls.

[1] = system: Alopecurus myosuroides (ALOMY); experiment: pre-emergence herbicidal test; conditions: second assessment 21 days after treatment
Experimental: as §1

[2] = system: Triticum aestivum (TRZAW); experiment: pre-emergence herbicidal test
Experimental: as §1

[3] = system: Matricaria inodora (MATIN); experiment: pre-emergence herbicidal test; conditions: second assessment 21 days after treatment
Experimental: as §1

[4] = system: Abutilon theophrasti (ABUTH); experiment: pre-emergence herbicidal test; conditions: second assessment 21 days after treatment
Experimental: as §1

Zea mays (ZEAMX) = experiment: pre-emergence herbicidal test
Experimental: as §1

Setaria viridis (SETVI) = experiment: pre-emergence herbicidal test; conditions: second assessment 21 days after treatment
Experimental: as §1

[5] = system: Ipomoea hederacea (IPOHE); experiment: pre-emergence herbicidal test; conditions: second assessment 21 days after treatment
Experimental: as §1

rice, maize and wheat = experiment: pre-emergence test, crop tolerance and selectivity; conditions: dose of 25 g/ha
Experimental: (§2) To evaluate their herbicidal activity, compounds according to the invention are tested using a representative range of plants:
(§3) The pre-emergence tests involve spraying a liquid formulation of the compound onto the soil in which the seeds of the plant species mentioned above has recently been sown.
(§4) The soil used in the tests is a prepared horticultural loam. The formulations used in the tests are prepared from solutions of the test compounds in acetone containing 0.4% by weight of an alkylphenol/ethylene oxide condensate available under the trade mark TRITON X-155. These acetone solutions are diluted with water and the resulting formulations applied at dosage levels corresponding to 12.5 g, 25 g, 100 g or 400 g of active material per hectare in a volume equivalent to 900 liters per hectare. In these tests untreated sown soil are used as controls.
(§5) From 2 to 4 weeks after treatment, the tests are terminated and each pot is examined and rated according to the rating system set forth below:
(§6) The compounds of the invention have shown to clearly improve selectivity in important crops (maize, soybeans, wheat, barley) when compared to the corresponding compounds of the state of the art having a central 4-methylpyrid-2,6-diyl moiety instead of the 3,5-difluoro-4-methylpyrid-2,6-diyl group according to the invention.

weeds = experiment: pre-emergence test, overall weed control; conditions: dose of 25 g/ha
Experimental: as §2, §3, §4, §5, §6

Veronica persica (VERPE) = experiment: pre-emergence herbicidal test; conditions: second assessment 21 days after treatment
Experimental: as §2, §3, §4
(§7) From 2 to 4 weeks after treatment, the tests are terminated and each pot is examined and rated according to the rating system set forth below: […]

Hordeum vulgare (HORVW) = experiment: pre-emergence herbicidal test
Experimental: as §2, §3, §4, §7

Oryza sativa (ORYSA) = experiment: pre-emergence herbicidal test
Experimental: as §2, §3, §4, §7

Stellaria media (STEME) = experiment: pre-emergence herbicidal test; conditions: second assessment 21 days after treatment
Experimental: as §2, §3, §4, §7

Galium aparine (GALAP) = experiment: pre-emergence herbicidal test; conditions: second assessment 21 days after treatment
Experimental: as §2, §3, §4, §7

[6] = 0.0125 kg/ha, first assessment 10 days after treatment
[7] = 0.0125 kg/ha, second assessment 21 days after treatment
[8] = 0.025 kg/ha, first assessment 10 days after treatment
[9] = 0.025 kg/ha, second assessment 21 days after treatment
[10] = 0.100 kg/ha, first assessment 10 days after treatment
[11] = 0.100 kg/ha, second assessment 21 days after treatment
[12] = 0.400 kg/ha, first assessment 10 days after treatment
[13] = 0.400 kg/ha, second assessment 21 days after treatment

## Cc1c(F)c(Oc2cc(C(F)(F)F)nn2C)nc(-c2ccc(C(F)(F)F)cc2)c1F [Example 1, 3,5-Difluoro4-methyl-2-(1-methyl-3-trifluoromethylpyrazol-5-yloxy)-6-(4-trifluoromethylphenyl)pyridine]
Glycine max (GLXMA); [6]
  GLXMA rating: 2 (2 - Slight effect)
Glycine max (GLXMA); [7]
  GLXMA rating: 4 (4 - Injury)
Glycine max (GLXMA); [8]
  GLXMA rating: 2 (2 - Slight effect)
Glycine max (GLXMA); [9]
  GLXMA rating: 4 (4 - Injury)
Glycine max (GLXMA); [10]
  GLXMA rating: 3 (3 - Moderate effect)
Glycine max (GLXMA); [11]
  GLXMA rating: 5 (5 - Definite injury)
Glycine max (GLXMA); [12]
  GLXMA rating: 4 (4 - Injury)
Glycine max (GLXMA); [13]
  GLXMA rating: 5 (5 - Definite injury)
[1]; 0.0125 kg/ha
  ALOMY rating: 7 (7 - Good herbicidal effect)
[1]; 0.025 kg/ha
  ALOMY rating: 8 (8 - Approaching complete kill)
[1]; 0.100 kg/ha
  ALOMY rating: 9 (9 - Complete kill)
[1]; 0.400 kg/ha
  ALOMY rating: 9 (9 - Complete kill)
[2]; [6]
  TRZAW rating: 3 (3 - Moderate effect)
[2]; [7]
  TRZAW rating: 3 (3 - Moderate effect)
[2]; [8]
  TRZAW rating: 3 (3 - Moderate effect)
[2]; [9]
  TRZAW rating: 3 (3 - Moderate effect)
[2]; [10]
  TRZAW rating: 5 (5 - Definite injury)
[2]; [11]
  TRZAW rating: 5 (5 - Definite injury)
[2]; [12]
  TRZAW rating: 6 (6 - Herbicidal effect)
[2]; [13]
  TRZAW rating: 6 (6 - Herbicidal effect)
[3]; 0.0125 kg/ha
  MATIN rating: 8 (8 - Approaching complete kill)
[3]; 0.025 kg/ha
  MATIN rating: 8 (8 - Approaching complete kill)
[3]; 0.100 kg/ha
  MATIN rating: 9 (9 - Complete kill)
[3]; 0.400 kg/ha
  MATIN rating: 9 (9 - Complete kill)
[4]; 0.0125 kg/ha
  ABUTH rating: 6 (6 - Herbicidal effect)
[4]; 0.025 kg/ha
  ABUTH rating: 9 (9 - Complete kill)
[4]; 0.100 kg/ha
  ABUTH rating: 9 (9 - Complete kill)
[4]; 0.400 kg/ha
  ABUTH rating: 9 (9 - Complete kill)
Zea mays (ZEAMX); [6]
  ZEAMX rating: 1 (1 - Trace effect)
Zea mays (ZEAMX); [7]
  ZEAMX rating: 1 (1 - Trace effect)
Zea mays (ZEAMX); [8]
  ZEAMX rating: 2 (2 - Slight effect)
Zea mays (ZEAMX); [9]
  ZEAMX rating: 2 (2 - Slight effect)
Zea mays (ZEAMX); [10]
  ZEAMX rating: 3 (3 - Moderate effect)
Zea mays (ZEAMX); [11]
  ZEAMX rating: 3 (3 - Moderate effect)
Setaria viridis (SETVI); 0.0125 kg/ha
  SETVI rating: 7 (7 - Good herbicidal effect)
Setaria viridis (SETVI); 0.025 kg/ha
  SETVI rating: 7 (7 - Good herbicidal effect)
Setaria viridis (SETVI); 0.100 kg/ha
  SETVI rating: 9 (9 - Complete kill)
Setaria viridis (SETVI); 0.400 kg/ha
  SETVI rating: 9 (9 - Complete kill)
[5]; 0.025 kg/ha
  IPOHE rating: 3 (3 - Moderate effect)
[5]; 0.100 kg/ha
  IPOHE rating: 9 (9 - Complete kill)
[5]; 0.400 kg/ha
  IPOHE rating: 9 (9 - Complete kill)
rice, maize and wheat
  crop tolerance: well tolerated
weeds
  overall levels of weed control: good overall levels of weed control
Veronica persica (VERPE); 0.0125 kg/ha
  VERPE rating: 8 (8 - Approaching complete kill)
Veronica persica (VERPE); 0.025 kg/ha
  VERPE rating: 9 (9 - Complete kill)
Veronica persica (VERPE); 0.100 kg/ha
  VERPE rating: 9 (9 - Complete kill)
Veronica persica (VERPE); 0.400 kg/ha
  VERPE rating: 9 (9 - Complete kill)
Hordeum vulgare (HORVW); [6]
  HORVW rating: 4 (4 - Injury)
Hordeum vulgare (HORVW); [7]
  HORVW rating: 4 (4 - Injury)
Hordeum vulgare (HORVW); [8]
  HORVW rating: 5 (5 - Definite injury)
Hordeum vulgare (HORVW); [9]
  HORVW rating: 4 (4 - Injury)
Hordeum vulgare (HORVW); [10]
  HORVW rating: 5 (5 - Definite injury)
Hordeum vulgare (HORVW); [11]
  HORVW rating: 5 (5 - Definite injury)
Hordeum vulgare (HORVW); [12]
  HORVW rating: 6 (6 - Herbicidal effect)
Hordeum vulgare (HORVW); [13]
  HORVW rating: 7 (7 - Good herbicidal effect)
Oryza sativa (ORYSA); [6]
  ORYSA rating: 1 (1 - Trace effect)
Oryza sativa (ORYSA); [7]
  ORYSA rating: 2 (2 - Slight effect)
Oryza sativa (ORYSA); [8]
  ORYSA rating: 1 (1 - Trace effect)
Oryza sativa (ORYSA); [9]
  ORYSA rating: 2 (2 - Slight effect)
Oryza sativa (ORYSA); [10]
  ORYSA rating: 3 (3 - Moderate effect)
Oryza sativa (ORYSA); [11]
  ORYSA rating: 4 (4 - Injury)
Oryza sativa (ORYSA); [12]
  ORYSA rating: 4 (4 - Injury)
Oryza sativa (ORYSA); [13]
  ORYSA rating: 5 (5 - Definite injury)
Stellaria media (STEME); 0.0125 kg/ha
  STEME rating: 9 (9 - Complete kill)
Stellaria media (STEME); 0.025 kg/ha
  STEME rating: 9 (9 - Complete kill)
Stellaria media (STEME); 0.100 kg/ha
  STEME rating: 9 (9 - Complete kill)
Stellaria media (STEME); 0.400 kg/ha
  STEME rating: 9 (9 - Complete kill)
Galium aparine (GALAP); 0.0125 kg/ha
  GALAP rating: 3 (3 - Moderate effect)
Galium aparine (GALAP); 0.025 kg/ha
  GALAP rating: 5 (5 - Definite injury)
Galium aparine (GALAP); 0.100 kg/ha
  GALAP rating: 7 (7 - Good herbicidal effect)
Galium aparine (GALAP); 0.400 kg/ha
  GALAP rating: 8 (8 - Approaching complete kill)
